These results are taken from patent US9884821B2, “N1-cyclic amine-N5-substituted biguanide derivatives, methods of preparing the same and pharmaceutical composition comprising the same” (IMMUNOMET THERAPEUTICS INC., priority 2013, dated 2018).

Experiment [1] deals with HCT116 cells. Nature of the experiment: Effect of inhibiting cancer cell proliferation (MTT) in HCT116 cells. The format is cell-based, human. The following applies: Homo sapiens, HCT-116, 48 h; for inhibition at 25 µM: read-out: Cell growth inhibition (%) at 25 μM; for inhibition at 100 µM: read-out: Cell growth inhibition (%) at 100 μM. The gist of the method:
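HCT116 colorectal cells (about 5,000 per well, DMEM with 10% FBS) treated with 100, 25, 6.25, 1.56 or 0.39 μM compound for 48 h. MTT added for 3 h, formazan read at 560 nm; GIC50 taken from viability relative to untreated cells.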

Experiment [2] has as its system AMPK. Nature of the experiment: AMPK activation effect (AMPK [pT172] ELISA) in MCF7 cells. The format is cell-based, human. To be noted: 24 hours; for AMPK activation effect (%) 5 μM / AMPK activation effect (%) 10 μM / AMPK activation effect (%) 50 μM: AMPKα Thr172 phosphorylation relative to untreated cells; for AC150: concentration at which AMPK activation reached 150%. An outline of the steps:
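MCF7 cells in DMEM/10% FBS were treated 24 h with compounds at 5, 10 and 50 uM. Lysates (20 μg protein) were assayed by ELISA for AMPKα Thr172 phosphorylation as the activation read-out.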

For the molecule `CC1CCCC(C)N1C(=N)NC(=N)Nc1ccc(OC(F)(F)F)cc1.Cl` (stereo not shown) [Example 89, N1-(2,6-dimethyl)piperidine-N5-(4-trifluoromethoxy)phenyl biguanide hydrochloride], in experiment [1], the GI50 came out at 6.2 µM and the inhibition at 25 µM worked out at 100%. Moreover, in experiment [2], the “AMPK activation effect (%) 5 μM” value is given as 153%, the “AMPK activation effect (%) 10 μM” value was 198% and the AC150 is 4.7 µM.

On to `CC1CCCN(C(=N)NC(=N)Nc2ccc(Cl)cc2)C1.Cl` (stereo not shown) [Example 87, N1-(3-methyl)piperidine-N5-(4-chloro)phenyl biguanide hydrochloride], for which, in experiment [1], the GI50 turned out to be 10 µM and the inhibition at 25 µM amounted to 100%. For the same molecule, in experiment [2], the “AMPK activation effect (%) 5 μM” value amounted to 219%, the “AMPK activation effect (%) 10 μM” value turned out to be 297% and the AC150 is 1.9 µM.

Take `CC1CCCCN1C(=N)NC(=N)Nc1cccc(C(F)(F)F)c1.Cl` (stereo not shown) [Example 79, N1-(2-methyl)piperidine-N5-(3-trifluoromethyl)phenyl biguanide hydrochloride]: in experiment [1], growth was halved (GI50) at 9.4 µM and the inhibition at 25 µM was determined as 98.9%. Moreover, in experiment [2], the “AMPK activation effect (%) 5 μM” value is given as 177%, the “AMPK activation effect (%) 10 μM” value was found to be 515% and the AC150 is 1.9 µM.

Take `Cl.N=C(NC(=N)N1CC=CCC1)Nc1ccc(F)cc1` [Example 37, N1-1,2,3,6-tetrahydropyridine-N5-(4-fluoro)phenyl biguanide hydrochloride]: in experiment [1], the GI50 turned out to be 135 µM and the inhibition at 100 µM turned out to be 45.3%. For the same molecule, in experiment [2], the “AMPK activation effect (%) 10 μM” value is reported as 187%, the “AMPK activation effect (%) 50 μM” value is 522% and the AC150 was found to be 4.2 µM.

Take `CC1=CCN(C(=N)NC(=N)NCc2ccc(C(F)(F)F)cc2)C1.Cl` [Example 26, N1-(3-methyl)-1,2-dihydropyrrole-N5-(4-trifluoromethyl)benzyl biguanide hydrochloride]: in experiment [1], halving of growth (GI50) required 8.2 µM and the inhibition at 100 µM is 96.7%. Also, in experiment [2], the “AMPK activation effect (%) 10 μM” value is 443%, the “AMPK activation effect (%) 50 μM” value is on record as 358% and the AC150 stood at 0.68 µM.

For the molecule `CC1=CCN(C(=N)NC(=N)Nc2ccc(Cl)c(C(F)(F)F)c2)C1.Cl` [Example 18, N1-(3-methyl)-1,2-dihydropyrrole-N5-(4-chloro, 3-trifluoromethyl)phenyl biguanide hydrochloride], in experiment [1], the GI50 amounted to 2.6 µM and the inhibition at 100 µM amounted to 99.5%. In addition, in experiment [2], the AC150 is 0.81 µM.

Take `CC1CCCC(C)N1C(=N)NC(=N)Nc1ccc(Cl)c(C(F)(F)F)c1.Cl` (stereo not shown) [Example 94, N1-(2,6-dimethyl)piperidine-N5-(4-chloro, 3-trifluoromethyl)phenyl biguanide hydrochloride]: in experiment [1], the GI50 came out at 2.8 µM and the inhibition at 25 µM came to 100%. In experiment [2], the “AMPK activation effect (%) 5 μM” value is on record as 328%, the “AMPK activation effect (%) 10 μM” value was determined as 643% and the AC150 turned out to be 1.1 µM.

In the case of `CC1CCCN(C(=N)NC(=N)Nc2ccc(OC(F)(F)F)cc2)C1.Cl` (stereo not shown) [Example 82, N1-(3-methyl)piperidine-N5-(4-trifluoromethoxy)phenyl biguanide hydrochloride], in experiment [1], the GI50 was determined as 7 µM and the inhibition at 25 µM worked out at 100%. In experiment [2], the “AMPK activation effect (%) 5 μM” value came out at 401%, the “AMPK activation effect (%) 10 μM” value was found to be 474% and the AC150 amounted to 0.5 µM.

Take `CC1CCCCN1C(=N)NC(=N)Nc1cccc(OC(F)(F)F)c1.Cl` (stereo not shown) [Example 73, N1-(2-methyl)piperidine-N5-(3-trifluoromethoxy)phenyl biguanide hydrochloride]: in experiment [1], the GI50 turned out to be 6.7 µM and the inhibition at 25 µM stood at 100%. In experiment [2], the “AMPK activation effect (%) 5 μM” value is recorded as 215%, the “AMPK activation effect (%) 10 μM” value was determined as 384% and the AC150 worked out at 2.0 µM.

Take `Cl.N=C(NC(=N)N1CC=CCC1)Nc1ccc(OC(F)(F)F)c(Cl)c1` [Example 11, N1-1,2,3,6-tetrahydropyridine-N5-(3-chloro,4-trifluoromethoxy) phenyl biguanide hydrochloride]: in experiment [1], the GI50 is 3 µM and the inhibition at 100 µM is 98%. In experiment [2], the “AMPK activation effect (%) 10 μM” value came out at 637% and the AC150 stood at 1.4 µM.

On to `Cl.N=C(NC(=N)N1CC=CCC1)Nc1ccc(F)c(C(F)(F)F)c1` [Example 32, N1-1,2,3,6-tetrahydropyridine-N5-(4-fluoro, 3-trifluoromethyl)phenyl biguanide hydrochloride], for which, in experiment [1], the GI50 amounted to 7.9 µM and the inhibition at 100 µM came to 99.4%. In experiment [2], the “AMPK activation effect (%) 10 μM” value was determined as 837% and the AC150 was 0.62 µM.

`Cl.N=C(NC(=N)N1CC=CCC1)Nc1cccc(C(F)(F)F)c1` [Example 31, N1-1,2,3,6-tetrahydropyridine-N5-(3-trifluoromethyl)phenyl biguanide hydrochloride]: in experiment [1], the GI50 came out at 7.8 µM and the inhibition at 100 µM is 99.5%. Besides, in experiment [2], the “AMPK activation effect (%) 10 μM” value is 391% and the AC150 worked out at 1.8 µM.

Regarding `CCCCNC(=N)NC(=N)N1CC=CCC1.Cl` [Example 59, N1-1,2,3,6-tetrahydropyridine-N5-butyl biguanide hydrochloride], in experiment [1], the GI50 turned out to be 141 µM and the inhibition at 100 µM was determined as 44.5%. For the same molecule, in experiment [2], the “AMPK activation effect (%) 10 μM” value came to 104%, the “AMPK activation effect (%) 50 μM” value is 283% and the AC150 came to 16.6 µM.

On to `Cl.N=C(NC(=N)N1CC=CC1)Nc1ccc(F)cc1` [Example 7, N1-1,2-dihydropyrrole-N5-(4-fluoro)phenyl biguanide hydrochloride], for which, in experiment [1], the GI50 was greater than 100 µM and the inhibition at 100 µM worked out at 19.8%. In experiment [2], the “AMPK activation effect (%) 10 μM” value is listed as 94%, the “AMPK activation effect (%) 50 μM” value amounted to 109% and the AC150 is greater than 50 µM.

`CC1CCCN(C(=N)NC(=N)Nc2cccc(C(F)(F)F)c2)C1.Cl` (stereo not shown) [Example 88, N1-(3-methyl)piperidine-N5-(3-trifluoromethyl)phenyl biguanide hydrochloride]: in experiment [1], the GI50 came out at 6.6 µM and the inhibition at 25 µM came out at 100%. In experiment [2], the “AMPK activation effect (%) 5 μM” value was 327%, the “AMPK activation effect (%) 10 μM” value was 399% and the AC150 was 0.7 µM.

With `Cl.N=C(NC(=N)N1CC=CC1)Nc1cccc(OC(F)(F)F)c1` [Example 52, N1-1,2-dihydropyrrole-N5-(3-trifluoromethoxy)phenyl biguanide hydrochloride], in experiment [1], halving of growth (GI50) required 15.4 µM and the inhibition at 100 µM is 100%. In experiment [2], the “AMPK activation effect (%) 10 μM” value came to 352% and the AC150 was found to be 2.7 µM.

For the molecule `CC1CCCC(C)N1C(=N)NC(=N)Nc1ccc(OC(F)(F)F)c(F)c1.Cl` (stereo not shown) [Example 95, N1-(2,6-dimethyl)piperidine-N5-(3-fluoro, 4-trifluoromethoxy)phenyl biguanide], in experiment [1], the GI50 is 2.9 µM and the inhibition at 25 µM amounted to 101%. For the same molecule, in experiment [2], the “AMPK activation effect (%) 5 μM” value is listed as 130%, the “AMPK activation effect (%) 10 μM” value is given as 326% and the AC150 turned out to be 3.1 µM.
